The results in this text go back to ChEMBL document CHEMBL5029185, “Discovery of Novel Polycyclic Heterocyclic Derivatives from Evodiamine for the Potential Treatment of Triple-Negative Breast Cancer” (J Med Chem, 2021).

A word on the IC50: it is the concentration needed to halve the response being measured. One may read the inhibition as the relative decrease from the control value, in per cent.

SMILES strings stand for the structures. Calls of active or inactive are those of the source. The rule behind the calls is not given here.

Data set [1] has as its system HepG2. Kind of data set: Antiproliferative activity against human HepG2 cells assessed as inhibition rate incubated for 72 hrs by MTT assay. The note with it: HepG2, 72 h. Type of data set: functional, cell-based. Background: Tetrazolium dyes change colour on reduction, which living cells bring about.
Data set [2] deals with A549. Kind of data set: Antiproliferative activity against human A549 cells assessed as inhibition rate incubated for 72 hrs by MTT assay. Type of data set: functional, cell-based. The settings on record: A549, 72 h.
The subject of data set [3] is MDA-MB-231. Briefly: Antiproliferative activity against human MDA-MB-231 cells assessed as inhibition rate incubated for 72 hrs by MTT assay. The settings on record: MDA-MB-231, 72 h. Type of data set: functional, cell-based.
The test system of data set [4] is MDA-MB-435. Kind of data set: Antiproliferative activity against human MDA-MB-435 cells assessed as inhibition rate incubated for 72 hrs by MTT assay. The note with it: MDA-MB-435, 72 h. Format: functional, cell-based.
Data set [5] has as its system H22. Kind of data set: Antiproliferative activity against mouse H22 cells assessed as inhibition rate incubated for 72 hrs by MTT assay. Type of data set: functional, cell-based. The note with it: H22, 72 h.
A short description of data set [6]: Selectivity index, ratio of IC50 for human MCF-10A cells to IC50 for human MDA-MB-231 cells.
For data set [7], the system named is MDA-MB-231. Briefly: Antiproliferative activity against human MDA-MB-231 cells transfected with siRNA-Ctrl assessed as cell viability by MTT assay. Type of data set: functional, cell-based.
Data set [8] deals with MCF-10A. Kind of data set: cells. Format: ADME, cell-based. The settings on record: Homo sapiens, 72 h.
Description: Antiproliferative activity against human MCF-10A cells assessed as inhibition rate incubated for 72 hrs by MTT assay
Data set [9] can be described thus: Ratio of IC50 for antiproliferative activity against human MDA-MB-231 cells transfected with siRNA-Top1 to IC50 for antiproliferative activity against human MDA-MB-231 cells transfected with siRNA-Ctrl assessed as cell viability by MTT assay. Format: functional.
Data set [10] has as its system LoVo. Briefly: Antiproliferative activity against human LoVo cells assessed as inhibition rate incubated for 72 hrs by MTT assay. Type of data set: functional, cell-based.
In data set [11] the test system is MCF7. Kind of data set: Antiproliferative activity against human MCF7 cells assessed as inhibition rate incubated for 72 hrs by MTT assay. Format: functional, cell-based. The settings on record: MCF7, 72 h.
Data set [12] relates to 4T1. Briefly: Antiproliferative activity against mouse 4T1 cells assessed as inhibition rate incubated for 72 hrs by MTT assay. Format: functional, cell-based. The settings on record: 4T1, 72 h.
For data set [13], the system named is MDA-MB-231. Kind of data set: Antiproliferative activity against human MDA-MB-231 cells transfected with siRNA-Top1 assessed as cell viability by MTT assay. Type of data set: functional, cell-based.
Data set [14] deals with T1, DNA topoisomerase 1 (Homo sapiens) (UniProt P11387).
T1 sequence (whole entry): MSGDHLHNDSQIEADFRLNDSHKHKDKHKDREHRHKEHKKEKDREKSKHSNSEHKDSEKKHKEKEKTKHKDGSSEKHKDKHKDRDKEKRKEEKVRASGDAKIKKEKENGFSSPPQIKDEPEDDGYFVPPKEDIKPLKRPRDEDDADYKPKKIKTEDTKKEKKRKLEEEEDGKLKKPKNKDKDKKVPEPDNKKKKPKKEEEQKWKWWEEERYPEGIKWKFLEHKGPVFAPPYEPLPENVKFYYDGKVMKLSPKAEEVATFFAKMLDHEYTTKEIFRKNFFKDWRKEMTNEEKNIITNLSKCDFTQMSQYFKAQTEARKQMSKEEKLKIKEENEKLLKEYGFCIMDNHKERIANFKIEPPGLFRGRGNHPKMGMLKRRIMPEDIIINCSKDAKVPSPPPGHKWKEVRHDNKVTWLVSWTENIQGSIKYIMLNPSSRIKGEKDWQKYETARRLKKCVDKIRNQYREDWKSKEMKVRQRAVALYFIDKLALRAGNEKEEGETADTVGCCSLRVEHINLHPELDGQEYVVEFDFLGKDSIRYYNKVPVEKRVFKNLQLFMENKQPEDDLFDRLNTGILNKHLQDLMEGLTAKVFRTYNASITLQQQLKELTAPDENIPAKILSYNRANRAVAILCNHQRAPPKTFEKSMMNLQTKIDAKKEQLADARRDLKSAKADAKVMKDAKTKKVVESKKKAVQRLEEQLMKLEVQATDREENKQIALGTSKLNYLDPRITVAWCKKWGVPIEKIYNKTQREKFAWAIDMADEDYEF
Briefly: Induction of topoisomerase 1-DNA cleavable complex in human MDA-MB-231 cells assessed as increase in cleavable complex by measuring SDS-K+ precipitable complex at 15 uM measured up to 15 hrs by liquid scintillation counting analysis. Type of data set: cell-based. The settings on record: time hrs <=15.

For data set [15], the system named is MDA-MB-231. Kind of data set: Antiproliferative activity against human MDA-MB-231 cells assessed as inhibition rate at 1 uM incubated for 72 hrs by MTT assay. Format: functional.
Data set [16] concerns MDA-MB-231. Kind of data set: Antiproliferative activity against human MDA-MB-231 cells assessed as inhibition rate at 100 uM incubated for 72 hrs by MTT assay. Type of data set: functional.
Data set [17] deals with MDA-MB-231. Briefly: Antiproliferative activity against human MDA-MB-231 cells assessed as inhibition rate at 10 uM incubated for 72 hrs by MTT assay. Type of data set: functional.
Data set [18] deals with HCT-116. Kind of data set: Antiproliferative activity against human HCT-116 cells assessed as inhibition rate incubated for 72 hrs by MTT assay. The note with it: HCT-116, 72 h. Type of data set: functional, cell-based.
The target of data set [19] is T1, DNA topoisomerase 1 (Homo sapiens). Kind of data set: Inhibition of topoisomerase 1 (unknown origin) assessed as relaxation of supercoiled plasmid pBR322 DNA upto 500 uM incubated for 15 mins by agarose gel electrophoresis. The settings on record: dose microM <=500, time 15.0 min.
Data set [20] concerns HEK293. Kind of data set: cells. Format: ADME, cell-based. The settings on record: Homo sapiens, HEK293, 72 h.
Description: Antiproliferative activity against HEK293 cells assessed as inhibition rate incubated for 72 hrs by MTT assay

For the compound `CC[C@@]1(O)C(=O)OCc2c1cc1n(c2=O)Cc2cc3ccccc3nc2-1` [CAMPTOTHECIN], the IC50 was determined as 110 nM in data set [1]; 100 nM in data set [2]; 420 nM in [3]; 310 nM in data set [4]; 540 nM in [5]; 264 nM in [7]. In addition, the IC50 was 2190 nM in data set [8]; 1540 nM in [10]; 560 nM in data set [11]; 170 nM in [12]; greater than 6400 nM in data set [13]. In data set [6], the selectivity ratio was determined as 5.2. For the same compound, in data set [9], the “Ratio IC50” value amounted to 24. For the same compound, the outcome in [14] was Active.

As to `O=C1c2cc(Br)ccc2OC2c3oc4ccc(O)cc4c3CCN12` (centres undefined), the IC50 in [2] amounted to 4140 nM; in data set [3], 1160 nM; in [4], 810 nM; in data set [18] it was 1710 nM. Also, the inhibition at 1 µM in [15] turned out to be 75.7%. The inhibition at 100 µM in [16] is 94.5%. Further, the inhibition at 10 µM in data set [17] was determined as 83.1%. Moreover, the result in data set [19] was inactive.

Take `COc1ccc2oc3c(c2c1)CCN1C(=O)c2cc(Cl)cc(Cl)c2OC31` (centres undefined): the inhibition at 1 µM in data set [15] came to 8.6%. Besides, the inhibition at 100 µM in data set [16] came out at 12.1%. The inhibition at 10 µM in [17] was 5.5%.

For the compound `COc1ccc2oc3c(c2c1)CCN1C(=O)c2ccc(C)cc2OC31` (centres undefined), in data set [15], the inhibition at 1 µM came out at 7.5%. For the same compound, in [16], the inhibition at 100 µM was determined as 41.5%. Further, the inhibition at 10 µM in data set [17] came to 19.2%.

On to `Cc1cccc2c1OC1c3oc4ccc(O)cc4c3CCN1C2=O` (centres undefined), for which the IC50 in data set [2] was found to be 6790 nM; in data set [3], 2520 nM; in data set [4], 1950 nM; in data set [18] it was 3450 nM. Also, the inhibition at 1 µM in [15] is 60.6%. Further, the inhibition at 100 µM in [16] was determined as 97.4%. The inhibition at 10 µM in data set [17] turned out to be 66.5%. Moreover, the result in data set [19] was inactive.

As to `O=C(O)c1ccc2[nH]c3c(c2c1)CCN1C(=O)c2ccccc2OC31` (centres undefined), in [15], the inhibition at 1 µM was 9.7%. For the same compound, in [16], the inhibition at 100 µM stood at 39.6%. The inhibition at 10 µM in data set [17] was 11.2%.

Regarding `Cc1ccc2c(c1)OC1c3oc4ccc(O)cc4c3CCN1C2=O` (centres undefined), the IC50 in [2] came out at 10500 nM; in data set [3] it was 1050 nM; in data set [4] it was 1140 nM; in data set [18], 4710 nM. Moreover, in [15], the inhibition at 1 µM was determined as 62.7%. Also, the inhibition at 100 µM in data set [16] turned out to be 94%. Also, the inhibition at 10 µM in [17] turned out to be 64.8%. Moreover, the outcome in data set [19] was inactive.

As for `CN1c2ccccc2C(=O)N2CCc3c([nH]c4ccccc34)C21` (centres undefined), the IC50 in [2] was 77200 nM; in data set [3] it was 13300 nM; in data set [4], 6300 nM; in data set [20] it was greater than 100000 nM; in [8], greater than 100000 nM; in data set [18] it was 32700 nM. Besides, in data set [15], the inhibition at 1 µM is 38.9%. Moreover, the inhibition at 100 µM in data set [16] is 73.3%. Further, in data set [6] (MCF-10A cells versus MDA-MB-231 cells), the selectivity ratio is greater than 10.7. In addition, in data set [17], the inhibition at 10 µM is 53.3%.

Turning to `COc1ccc2oc3c(c2c1)CCN1C(=O)c2cccc(C)c2OC31` (centres undefined), in data set [15], the inhibition at 1 µM is 7.1%. Also, in [16], the inhibition at 100 µM is 15%. Besides, the inhibition at 10 µM in data set [17] came to 11.9%.

`COc1ccc2nc3c(cc2c1)CN1C(=O)c2ccccc2N(C)C31` (centres undefined): the inhibition at 1 µM in data set [15] came out at 7.6%. In addition, in data set [16], the inhibition at 100 µM is 80.7%. Also, in data set [17], the inhibition at 10 µM amounted to 11.9%.

Take `O=C1c2cc(Cl)cc(Cl)c2OC2c3oc4ccc(O)cc4c3CCN12` (centres undefined): the IC50 in [2] stood at 7580 nM; in [3], 3730 nM; in data set [4], 2330 nM; in data set [18], 6090 nM. In data set [15], the inhibition at 1 µM turned out to be 32.7%. Further, the inhibition at 100 µM in data set [16] is 96.9%. Besides, the inhibition at 10 µM in data set [17] was determined as 59.5%. Moreover, in data set [19], the result was inactive.

Regarding `COc1ccc2oc3c(c2c1)CCN1C(=O)c2cc(Cl)ccc2OC31` (centres undefined), in data set [15], the inhibition at 1 µM amounted to 2.3%. In addition, in data set [16], the inhibition at 100 µM turned out to be 15.9%. Further, the inhibition at 10 µM in data set [17] is 7.3%.

As to `COC(=O)c1ccc2[nH]c3c(c2c1)CCN1C(=O)c2ccccc2OC31` (centres undefined), in data set [15], the inhibition at 1 µM came to 12.6%. Besides, in data set [16], the inhibition at 100 µM came to 45.2%. The inhibition at 10 µM in data set [17] is 15.7%.

In the case of `COc1ccc2oc3c(c2c1)CCN1C(=O)c2cc(Br)ccc2OC31` (centres undefined), in data set [15], the inhibition at 1 µM worked out at 6.8%. Further, the inhibition at 100 µM in data set [16] is 13%. Moreover, in data set [17], the inhibition at 10 µM was 9.2%.

Consider `CN1c2ccccc2C(=O)N2Cc3cc4cc(O)ccc4nc3C21` (centres undefined), for which, in [15], the inhibition at 1 µM is 6.3%. Further, the inhibition at 100 µM in data set [16] turned out to be 89.9%. Moreover, in data set [17], the inhibition at 10 µM is 19.8%.

In the case of `O=C1c2ccccc2OC2c3oc4ccc(O)cc4c3CCN12` (centres undefined), the IC50 in data set [2] was 4280 nM; in data set [3], 860 nM; in data set [4], 470 nM; in data set [18] it was 1260 nM. Also, the inhibition at 1 µM in data set [15] stood at 55.1%. In addition, in [16], the inhibition at 100 µM is 96.5%. In addition, the inhibition at 10 µM in [17] is 61.2%. Further, the outcome in [19] was inactive.

For the compound `COc1ccc2oc3c(c2c1)CCN1C(=O)c2ccccc2OC31` (centres undefined), the inhibition at 1 µM in data set [15] was 6%. In data set [16], the inhibition at 100 µM was found to be 36.6%. The inhibition at 10 µM in data set [17] worked out at 10.6%.
